Columns and labels:
Mus musculus = assay: In vivo inhibition of apomorphine-induced climbing response in mice.; type: functional
[1] = target: Serotonin 2 (5-HT2) receptor (Rattus norvegicus, UniProt P30994+P08909+P14842); assay: Inhibition of [3H]ketanserin binding at 5-hydroxytryptamine 2 receptor from rat frontal cortex.
[2] = target: T1, 5-hydroxytryptamine receptor 1A (Rattus norvegicus, UniProt P19327); assay: Inhibition of [3H]8-OH-DPAT binding at serotonin 5-hydroxytryptamine 1A receptor from rat hippocampus tissue.; type: tissue-based
T1 sequence (P19327 whole entry): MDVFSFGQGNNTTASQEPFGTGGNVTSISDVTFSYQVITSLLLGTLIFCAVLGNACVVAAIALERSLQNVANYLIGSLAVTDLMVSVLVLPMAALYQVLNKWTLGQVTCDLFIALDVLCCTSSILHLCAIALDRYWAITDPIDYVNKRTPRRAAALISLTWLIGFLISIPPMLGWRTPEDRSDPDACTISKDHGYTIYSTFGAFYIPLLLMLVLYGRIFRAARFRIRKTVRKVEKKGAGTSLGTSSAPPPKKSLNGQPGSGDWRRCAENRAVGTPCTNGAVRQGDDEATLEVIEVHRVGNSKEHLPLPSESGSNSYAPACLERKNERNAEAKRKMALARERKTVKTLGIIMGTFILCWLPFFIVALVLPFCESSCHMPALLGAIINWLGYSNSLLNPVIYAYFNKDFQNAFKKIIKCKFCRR

Row | Structure (SMILES) | ED50 (Mus musculus) | IC50 [1] | IC50 [2]
1 | O=C1c2ccccc2CN1CCOCCN1CCN(c2nsc3ccccc23)CC1 | > 25 mg/kg | 1.7 nM | –
2 | O=C1c2ccccc2C(=O)N1CC1CC1CN1CCN(c2nsc3ccccc23)CC1 (configuration not stated) | 22.9 mg/kg | 4 nM | 19 nM
3 | O=C1c2ccccc2C(=O)N1CCN1CCN(c2nsc3ccccc23)CC1 | > 25 mg/kg | 30 nM | 54 nM
4 | O=C1c2ccccc2C(=O)N1CCCCN1CCN(c2nsc3ccccc23)CC1 | 1.1 mg/kg | – | –
5 | O=C1c2ccccc2C(=O)N1C/C=C/CN1CCN(c2nsc3ccccc23)CC1 | 12.7 mg/kg | 0.78 nM | 4.7 nM
6 | O=C1c2ccccc2CN1C/C=C/CN1CCN(c2nsc3ccccc23)CC1 | 17.6 mg/kg | 1.7 nM | –
7 | O=C1c2ccccc2CN1CCN1CCN(c2nsc3ccccc23)CC1 | > 25 mg/kg | 9.8 nM | 40 nM
8 | O=C1c2ccccc2C(=O)N1CCOCCN1CCN(c2nsc3ccccc23)CC1 | > 25 mg/kg | 5.4 nM | 54 nM
9 | O=C1c2ccccc2C(=O)N1CCCN1CCN(c2nsc3ccccc23)CC1 | > 25 mg/kg | 6 nM | 13 nM
10 | O=C1c2ccccc2CN1C1CCC(N2CCN(c3nsc4ccccc34)CC2)CC1 (configuration not stated) | 11.7 mg/kg | 120 nM | 140 nM
11 | O=C1c2ccccc2C(=O)N1CCCCCN1CCN(c2nsc3ccccc23)CC1 | 27 mg/kg | 1.8 nM | 2 nM
12 | O=C1c2ccccc2CN1CCCCN1CCN(c2nsc3ccccc23)CC1 | 6.8 mg/kg | – | –
13 | O=C1c2ccccc2CN1CCCCCN1CCN(c2nsc3ccccc23)CC1 | 20 mg/kg | 2.2 nM | 2.7 nM
14 | O=C1c2ccccc2C(=O)N1C/C=C\CN1CCN(c2nsc3ccccc23)CC1 | > 25 mg/kg | 3.2 nM | 24 nM
15 | O=C1c2ccccc2CN1C/C=C\CN1CCN(c2nsc3ccccc23)CC1 | 13.9 mg/kg | 5.5 nM | –
16 | O=C1c2ccccc2C(=O)N1CC#CCN1CCN(c2nsc3ccccc23)CC1 | > 25 mg/kg | 43 nM | 420 nM
17 | O=C1c2ccccc2CN1CCCN1CCN(c2nsc3ccccc23)CC1 | > 25 mg/kg | 13 nM | 390 nM
18 | O=C1c2ccccc2CN1CC#CCN1CCN(c2nsc3ccccc23)CC1 | > 25 mg/kg | 18 nM | –
19 | O=C(CCCN1CCC(O)(c2ccc(Cl)cc2)CC1)c1ccc(F)cc1 [HALOPERIDOL] | 2 mg/kg | – | –

— ChEMBL document CHEMBL1129281, “Effect of linking bridge modifications on the antipsychotic profile of some phthalimide and isoindolinone derivatives” (J Med Chem, 1996)
